Source: publication PMC6591251, “Discovery of potent necroptosis inhibitors targeting RIPK1 kinase activity for the treatment of inflammatory disorder and cancer metastasis” (Cell Death & Disease, 2019)

Key:
[1] = test system: HT-29 cells; assay: TNF-induced necroptosis (TNFα/Smac mimetic/z-VAD), cell viability by ATP levels; format: cell-based, human; conditions: Homo sapiens, HT-29, 48 h, T/S/Z 48 h, read-out: EC50(nM) HT-29
Procedure: (§1) Necroptosis is tightly regulated by RIP kinases including RIPK1 and RIPK3. To develop new necroptosis inhibitors, we screened a small-molecule library of around 240 potential kinase inhibitors that were designed with novel structures to affect the ATP-binding pocket of protein kinases. Human colon cancer HT-29 cells were treated with these compounds for […], followed by treatment with necroptotic stimuli (TNFα, Smac mimetic, and z-VAD) that are known to activate TNF-mediated necroptosis. After 48 h, cell viability was analyzed by monitoring ATP levels.
(§2) Fig. 1 PK6 efficiently blocks TNF-α induced necroptosis in both human and mouse cells. a HT-29 cells cultured in 96-well plates were pretreated with the indicated compounds (10 μM) from a library consisting of ~240 compounds that we designed with novel structures for 1 h and subsequently treated with 40 ng/ml TNF-α (T), 100 nM Smac mimetic (S), and the caspase inhibitor 20 μM z-VAD(Z) for 48 h. Cell viability was assessed by measuring ATP levels. Data are represented as the mean ± standard deviation of duplicates. b Chemical structure of PK6. c Dose response curve and EC50 ± SD value for PK6 in TNF-α induced necroptosis in HT-29 cells. Cells were pretreated with indicated concentrations of PK6 for 1 h prior to the treatment with T (40 ng/ml), S (100 nM), and Z (20 μM) for 48 h. Cell viability was assessed by measuring ATP levels. d U937 cells were pretreated with indicated concentrations of PK6 for 1 h followed by the treatment with T (40 ng/ml), S (100 nM), and Z (20 μM) for 24 h. e MEF cells were pretreated with indicated concentrations of PK6 for 1 h followed by the treatment with T (40 ng/ml), S (100 nM), and Z (20 μM) for 24 h. f L929 cells were pretreated with indicated concentrations of PK6 for 1 h prior to the treatment with S (100 nM) and Z (20 μM) for 24 h.
(§3) Fig. 2 Chemical optimization of PK6 leads to improvements in anti-necroptotic activity. a, b The effects of the indicated compounds on cell viability were examined in HT-29 cells (a) and L929 cells (b). HT-29 cells were treated as indicate for 48 h and L929 cells for 24 h. Cell viability was assessed by measuring ATP levels. Data are represented as the mean ± standard deviation of triplicates. c Structure and EC50 ± SD value of each compound are shown in the table. EC50 values are the average of at least two independent determinations. d Lead optimization of PK6 TEXT PRINTED IN THE PICTURE: (c) PK6: EC50(nM) HT-29: 1200±53; EC50(nM) L929: 760±26 | (c) PK67: EC50(nM) HT-29: 250±6.3; EC50(nM) L929: 130±6.8 | (c) PK81: EC50(nM) HT-29: 120±7.6; EC50(nM) L929: 20±0.98 | (c) PK84: EC50(nM) HT-29: 97±6.7; EC50(nM) L929: 45±2.1 | (c) PK93: EC50(nM) HT-29: 130±36; EC50(nM) L929: 30±7.4 | (c) PK86: EC50(nM) HT-29: 73±3.9; EC50(nM) L929: 15±1.0 | (c) PK68: EC50(nM) HT-29: 23±1.4; EC50(nM) L929: 13±0.85
(§4) The cell viability was analyzed by using the CellTiter-Glo Luminescent Cell Viability Assay kit following the manufacturer’s instructions (Promega). Luminescence was measured with SpectraMax i3x (Molecular Devices).

[2] = test system: L929 cells; assay: TNF-induced necroptosis, cell viability by ATP levels; format: cell-based; conditions: Mus musculus, L929, 24 h, read-out: EC50(nM) L929
Procedure: as §1, §2, §3, §4

[3] = test system: human cells; design: method as in PMID 27551444, PMID 28151659; conditions: cited from earlier work
[4] = test system: mouse and rat; design: method as in PMID 27551444, PMID 28151659; conditions: cited from earlier work
[5] = test system: B16-F10 or RFP-LL/2 cells; assay: Proliferation rate and invasion ability without endothelial monolayer; format: cell-based, mouse; conditions: B16-F10 or RFP-LL/2, in vitro
Procedure: Studies have shown that RIPK1 kinase activity is involved in the promotion of tumor metastasis through death receptor 6-dependent necroptosis of endothelial cells[22] or VEGF-dependent activation of vascular permeability. We thus evaluated the therapeutic effect of PK68 on lung metastasis of mouse melanoma B16-F10 cells in vivo. […] After 2 weeks, the metastasis of B16-F10 cells was measured by histological analysis and assessed as the number of metastasis nodules in the lung. […] Two weeks after intravenous injection of RFP-LL/2 cells, RFP^+ LL/2 cells were isolated from the tumor tissues by flow cytometer sorting and no signal of phosphorylated RIPK1 was detected in these tumors cells (Supplementary Fig. 22). Six hours after intravenous injection of RFP-LL/2 cells into C57BL/6 mice, the RFP-LL/2 cells have extravasated through blood vessels into the lung (Supplementary Fig. 23). […] Further, we evaluated the effect of PK68 on the tumor cell transmigration across the cultured endothelium. We isolated CD31^+ endothelial cells from the lungs and performed the transendothelial migration assay as previously reported. […]
(A-B) B16-F10 and RFP-LL/2 cells were pretreated with indicated compounds for 1h and then cell viability was measured by cell Titer-Glo. (C) B16-F10 and RFP-LL/2 cells were pre-treated with indicated compounds and invasion ability was measured by the transwell assay.

[6] = test system: NIH3T3-RIPK3 cells; assay: RIPK3 dimerization-induced necroptosis (AP20187); format: cell-based, mouse; conditions: AP20187 100 nM, 24 h
Procedure: (§5) Recombinant proteins were incubated with PK6 and PK68 as indicated. […] NIH3T3-RIPK3 cells were pretreated with indicated compounds for 1 h and subsequently treated with T (40 ng/ml)/S (100 nM)/Z (20 μM) or AP20187 (100 nM) for 24 h. Cell viability was determined by measuring ATP levels. e PK6 and PK68 have no effect on MLKL dimerization-induced cell death in HeLa-MLKL (1–190) cells that stably express MLKL (1–190aa) fused to DmrB. HeLa-MLKL (1–190) cells were pretreated with indicated compounds for 1 h and subsequently treated with AP20187 (100 nM) for 24 h. Cell viability was determined by measuring ATP levels.
(§6) Further, we evaluated the selectivity of PK68 against a panel of 369 kinases provided by Reaction Biology (at 1000 nM). […] In addition, we followed on some of the active “hits” from the kinome scan. PK68 was tested against TNIK and TRKA by a reputable CRO company. […] RIPK1 is known to mediate NF-κB activation independently of its kinase activity. […] It has been shown that homodimerization of RIPK3 or MLKL induced by the dimerizer leads to necroptosis bypassing the upstream signals[10],[37]. […] This dimerized RIPK3-induced necroptosis was blocked by RIPK3 inhibitor GSK873 but was not blocked by the RIPK1 inhibitor necrostatin-1. […] (Fig. 4e).
as §4

[7] = test system: HeLa-MLKL (1–190) cells; assay: MLKL dimerization-induced cell death (AP20187); format: cell-based, human; conditions: AP20187 100 nM, 24 h
Procedure: as §5, §6, §4

**Q.** For CC(=O)Nc1nc2ccc(-c3cnc(C)c(NC(=O)CC4CCCCC4)c3)cc2s1 [PK67, N-(5-(2-acetamidobenzo[d]thiazol-6-yl)-2-methylpyridin-3-yl)-2-cyclohexylacetamide], which EC50 [1] is on record?
**A.** The EC50 was 250 nM.

**Q.** And the EC50 [2]?
**A.** The EC50 was 130 nM.

**Q.** For CN1C(=O)[C@@H](NC(=O)c2n[nH]c(Cc3ccccc3)n2)COc2ccccc21 [GSK2982772], which “potency in human cells” value [3] is on record?
**A.** The value was “extremely potent”.

**Q.** And the “cellular efficacy in mouse and rat” value [4]?
**A.** The value was “highly reduced cellular efficacy”.

**Q.** For CC(=O)Nc1nc2ccc(-c3cc(NC(=O)OC4CCCCC4)c(C)cn3)cc2s1 [PK86, cyclohexyl (2-(2-acetamidobenzo[d]thiazol-6-yl)-5-methylpyridin-4-yl)carbamate], which EC50 [1] is on record?
**A.** The EC50 was 73 ± 3.9 nM.

**Q.** What about the EC50 [2] of the same compound?
**A.** Its EC50 is 15 ± 1 nM.

**Q.** What about the melting point of the same compound?
**A.** The melting point was 227 to 228 °C.

**Q.** For CN1C(=O)NC(Cc2c[nH]c3c(Cl)cccc23)C1=O (stereo not drawn) [Nec-1s, 7-Cl-O-Nec-1, reference compound], which “proliferation rate and invasion ability” value [5] is on record?
**A.** The value was “no obvious influence”.

**Q.** With CN1C(=O)C(Cc2c[nH]c3ccccc23)NC1=S (stereo not drawn) [necrostatin-1, Necrostatin-1, reference compound] as the compound, how does the RIPK3 dimerization-induced necroptosis [6] read?
**A.** The RIPK3 dimerization-induced necroptosis was “not blocked”.

**Q.** With COc1nccnc1NS(=O)(=O)c1ccc(NC(=O)/C=C/c2ccc([N+](=O)[O-])s2)cc1 [necrosulfonamide, reference compound] as the compound, how does the “polymerized MLKL-induced necroptosis” value [7] read?
**A.** The value was “effectively suppressed”.

**Q.** With CC(=O)Nc1nc2ccc(-c3cnc(C)c(NC(=O)OC4CCCCC4)c3)nc2s1 [PK93, cyclohexyl (5-(2-acetamidothiazolo[5,4-b]pyridin-5-yl)-2-methylpyridin-3-yl)carbamate] as the compound, how does the EC50 [1] read?
**A.** The EC50 was 130 ± 36 nM.

**Q.** And the EC50 [2]?
**A.** Its EC50 is 30 ± 7.4 nM.

**Q.** What about the melting point of the same compound?
**A.** The melting point was 230 to 231 °C (dec.).

**Q.** Which results are given for CC(C)(C)C(=O)N1N=CC[C@H]1c1ccccc1 [GSK963]?
**A.** potency in human cells [3]: extremely potent; cellular efficacy in mouse and rat [4]: highly reduced cellular efficacy

**Q.** Which results are given for CC(=O)Nc1nc2ccc(-c3cnc(C)c(NC(=O)OC4CCCC4)c3)cc2s1 [PK81, cyclopentyl (5-(2-acetamidobenzo[d]thiazol-6-yl)-2-methylpyridin-3-yl)carbamate]?
**A.** EC50 [1]: 120 ± 7.6 nM; EC50 [2]: 20 ± 0.98 nM; melting point: 246 to 247 °C (dec.)

**Q.** What does the source list for CC(=O)Nc1cn2cc(-c3cnc(C)c(NC(=O)OC4CCCCC4)c3)ccc2n1 [PK84, cyclohexyl (5-(2-acetamidoimidazo[1,2-a]pyridin-6-yl)-2-methylpyridin-3-yl)carbamate]?
**A.** EC50 [1]: 97 ± 6.7 nM; EC50 [2]: 45 ± 2.1 nM; melting point: 268 to 269 °C (dec.)
